± gives the expanded uncertainty stated by the source.
Conditions: Liquid, Vibrating tube method

CCC(C)N (configuration not stated) [2-butanamine]
Conditions | mass density [kg/m3]
293.15 K, 100 kPa | 725.3 ± 1.1
293.15 K, 10000 kPa | 733.6 ± 1.1
293.15 K, 20000 kPa | 741.2 ± 1.1
293.15 K, 30000 kPa | 748.1 ± 1.1
293.15 K, 40000 kPa | 754.5 ± 1.1
293.15 K, 50000 kPa | 760.4 ± 1.2
293.15 K, 60000 kPa | 766.1 ± 1.2
293.15 K, 70000 kPa | 771.3 ± 1.2
293.15 K, 80000 kPa | 776.3 ± 1.3
293.15 K, 90000 kPa | 781.1 ± 1.3
293.15 K, 100000 kPa | 785.5 ± 1.3
293.15 K, 110000 kPa | 789.7 ± 1.4
293.15 K, 120000 kPa | 793.9 ± 1.4
293.15 K, 130000 kPa | 797.8 ± 1.4
293.15 K, 140000 kPa | 801.5 ± 1.5
303.15 K, 100 kPa | 715.1 ± 1.1
303.15 K, 10000 kPa | 724.3 ± 1.1
303.15 K, 20000 kPa | 732.4 ± 1.1
303.15 K, 30000 kPa | 739.7 ± 1.1
303.15 K, 40000 kPa | 746.3 ± 1.1
303.15 K, 50000 kPa | 752.5 ± 1.2
303.15 K, 60000 kPa | 758.3 ± 1.2
303.15 K, 70000 kPa | 763.7 ± 1.2
303.15 K, 80000 kPa | 768.9 ± 1.3
303.15 K, 90000 kPa | 773.8 ± 1.3
303.15 K, 100000 kPa | 778.4 ± 1.4
303.15 K, 110000 kPa | 782.9 ± 1.4
303.15 K, 120000 kPa | 787.2 ± 1.4
303.15 K, 130000 kPa | 791.2 ± 1.5
303.15 K, 140000 kPa | 795.2 ± 1.5
313.15 K, 100 kPa | 705 ± 1.1
313.15 K, 10000 kPa | 714.8 ± 1.1
313.15 K, 20000 kPa | 723.4 ± 1.1
313.15 K, 30000 kPa | 731.1 ± 1.1
313.15 K, 40000 kPa | 738.2 ± 1.1
313.15 K, 50000 kPa | 744.7 ± 1.2
313.15 K, 60000 kPa | 750.8 ± 1.2
313.15 K, 70000 kPa | 756.5 ± 1.3
313.15 K, 80000 kPa | 761.9 ± 1.3
313.15 K, 90000 kPa | 767 ± 1.3
313.15 K, 100000 kPa | 771.8 ± 1.4
313.15 K, 110000 kPa | 776.4 ± 1.4
313.15 K, 120000 kPa | 780.8 ± 1.5
313.15 K, 130000 kPa | 785.1 ± 1.5
313.15 K, 140000 kPa | 789.1 ± 1.5
323.15 K, 100 kPa | 694.7 ± 1.1
323.15 K, 10000 kPa | 705.4 ± 1.1
323.15 K, 20000 kPa | 714.5 ± 1.1
323.15 K, 30000 kPa | 722.8 ± 1.1
323.15 K, 40000 kPa | 730.4 ± 1.2
323.15 K, 50000 kPa | 737.2 ± 1.2
323.15 K, 60000 kPa | 743.6 ± 1.2
323.15 K, 70000 kPa | 749.5 ± 1.3
323.15 K, 80000 kPa | 755.2 ± 1.3
323.15 K, 90000 kPa | 760.4 ± 1.3
323.15 K, 100000 kPa | 765.4 ± 1.4
323.15 K, 110000 kPa | 770.2 ± 1.4
323.15 K, 120000 kPa | 774.7 ± 1.5
323.15 K, 130000 kPa | 779 ± 1.5
323.15 K, 140000 kPa | 783.2 ± 1.6
333.15 K, 10000 kPa | 695.4 ± 1.1
333.15 K, 20000 kPa | 705.2 ± 1.1
333.15 K, 30000 kPa | 714 ± 1.1
333.15 K, 40000 kPa | 722 ± 1.2
333.15 K, 50000 kPa | 729.2 ± 1.2
333.15 K, 60000 kPa | 735.8 ± 1.2
333.15 K, 70000 kPa | 742.1 ± 1.3
333.15 K, 80000 kPa | 748 ± 1.3
333.15 K, 90000 kPa | 753.4 ± 1.4
333.15 K, 100000 kPa | 758.6 ± 1.4
333.15 K, 110000 kPa | 763.5 ± 1.5
333.15 K, 120000 kPa | 768.1 ± 1.5
333.15 K, 130000 kPa | 772.5 ± 1.5
333.15 K, 140000 kPa | 776.9 ± 1.6
343.15 K, 10000 kPa | 685.9 ± 1.1
343.15 K, 20000 kPa | 696.6 ± 1.1
343.15 K, 30000 kPa | 706 ± 1.2
343.15 K, 40000 kPa | 714.3 ± 1.2
343.15 K, 50000 kPa | 721.9 ± 1.2
343.15 K, 60000 kPa | 728.8 ± 1.3
343.15 K, 70000 kPa | 735.3 ± 1.3
343.15 K, 80000 kPa | 741.3 ± 1.3
343.15 K, 90000 kPa | 747.1 ± 1.4
343.15 K, 100000 kPa | 752.4 ± 1.4
343.15 K, 110000 kPa | 757.4 ± 1.5
343.15 K, 120000 kPa | 762.3 ± 1.5
343.15 K, 130000 kPa | 767 ± 1.6
343.15 K, 140000 kPa | 771.3 ± 1.6
353.15 K, 10000 kPa | 675.8 ± 1.1
353.15 K, 20000 kPa | 687.1 ± 1.1
353.15 K, 30000 kPa | 697.2 ± 1.2
353.15 K, 40000 kPa | 705.8 ± 1.2
353.15 K, 50000 kPa | 714 ± 1.2
353.15 K, 60000 kPa | 721.2 ± 1.3
353.15 K, 70000 kPa | 728 ± 1.3
353.15 K, 80000 kPa | 734.2 ± 1.4
353.15 K, 90000 kPa | 740.1 ± 1.4
353.15 K, 100000 kPa | 745.7 ± 1.4
353.15 K, 110000 kPa | 751 ± 1.5
353.15 K, 120000 kPa | 756 ± 1.5
353.15 K, 130000 kPa | 760.7 ± 1.6
353.15 K, 140000 kPa | 765.3 ± 1.6
363.15 K, 10000 kPa | 665.7 ± 1.2
363.15 K, 20000 kPa | 678 ± 1.2
363.15 K, 30000 kPa | 688.5 ± 1.2
363.15 K, 40000 kPa | 697.8 ± 1.2
363.15 K, 50000 kPa | 706.2 ± 1.2
363.15 K, 60000 kPa | 713.9 ± 1.3
363.15 K, 70000 kPa | 721 ± 1.3
363.15 K, 80000 kPa | 727.5 ± 1.4
363.15 K, 90000 kPa | 733.6 ± 1.4
363.15 K, 100000 kPa | 739.4 ± 1.5
363.15 K, 110000 kPa | 744.8 ± 1.5
363.15 K, 120000 kPa | 749.9 ± 1.6
363.15 K, 130000 kPa | 754.8 ± 1.6
363.15 K, 140000 kPa | 759.5 ± 1.7
373.15 K, 10000 kPa | 655.5 ± 1.2
373.15 K, 20000 kPa | 668.9 ± 1.2
373.15 K, 30000 kPa | 680.1 ± 1.2
373.15 K, 40000 kPa | 690 ± 1.2
373.15 K, 50000 kPa | 698.2 ± 1.3
373.15 K, 60000 kPa | 707 ± 1.3
373.15 K, 70000 kPa | 714 ± 1.3
373.15 K, 80000 kPa | 720.9 ± 1.4
373.15 K, 90000 kPa | 727.2 ± 1.4
373.15 K, 100000 kPa | 733.2 ± 1.5
373.15 K, 110000 kPa | 738.7 ± 1.5
373.15 K, 120000 kPa | 744 ± 1.6
373.15 K, 130000 kPa | 749.1 ± 1.6
373.15 K, 140000 kPa | 753.9 ± 1.7
383.15 K, 10000 kPa | 645.5 ± 1.2
383.15 K, 20000 kPa | 659.9 ± 1.2
383.15 K, 30000 kPa | 671.9 ± 1.2
383.15 K, 40000 kPa | 682.3 ± 1.2
383.15 K, 50000 kPa | 691.4 ± 1.3
383.15 K, 60000 kPa | 699.6 ± 1.3
383.15 K, 70000 kPa | 707.3 ± 1.4
383.15 K, 80000 kPa | 714.4 ± 1.4
383.15 K, 90000 kPa | 720.8 ± 1.5
383.15 K, 100000 kPa | 726.9 ± 1.5
383.15 K, 110000 kPa | 732.7 ± 1.6
383.15 K, 120000 kPa | 738.2 ± 1.6
383.15 K, 130000 kPa | 743.3 ± 1.7
383.15 K, 140000 kPa | 748.2 ± 1.7
393.15 K, 10000 kPa | 634.9 ± 1.2
393.15 K, 20000 kPa | 650.5 ± 1.2
393.15 K, 30000 kPa | 663.1 ± 1.2
393.15 K, 40000 kPa | 674.3 ± 1.2
393.15 K, 50000 kPa | 684.3 ± 1.3
393.15 K, 60000 kPa | 693 ± 1.3
393.15 K, 70000 kPa | 700.9 ± 1.4
393.15 K, 80000 kPa | 708.2 ± 1.4
393.15 K, 90000 kPa | 714.9 ± 1.5
393.15 K, 100000 kPa | 721.2 ± 1.5
393.15 K, 110000 kPa | 727.2 ± 1.6
393.15 K, 120000 kPa | 732.8 ± 1.6
393.15 K, 130000 kPa | 738.1 ± 1.7
393.15 K, 140000 kPa | 742.9 ± 1.7
403.15 K, 10000 kPa | 623.9 ± 1.2
403.15 K, 20000 kPa | 640.6 ± 1.2
403.15 K, 30000 kPa | 654.5 ± 1.2
403.15 K, 40000 kPa | 666.1 ± 1.3
403.15 K, 50000 kPa | 676.3 ± 1.3
403.15 K, 60000 kPa | 685.3 ± 1.3
403.15 K, 70000 kPa | 693.6 ± 1.4
403.15 K, 80000 kPa | 701.1 ± 1.4
403.15 K, 90000 kPa | 708.2 ± 1.5
403.15 K, 100000 kPa | 714.9 ± 1.5
403.15 K, 110000 kPa | 721.1 ± 1.6
403.15 K, 120000 kPa | 726.9 ± 1.6
403.15 K, 130000 kPa | 732.3 ± 1.7
403.15 K, 140000 kPa | 737.4 ± 1.8
